Data from patent US11485744B2, “High penetration prodrug compositions of antimicrobials and antimicrobial-related compounds” (priority 2009, dated 2022).
Structures can show the parent of a compound that is named as a salt.

Assay: Conversion of HPPs to parent drugs in human plasma (half life)
Type: in vitro ADME
Details: human, plasma
Experimental: HPPs of antimicrobials or antimicrobial-related compounds converted to the parent antimicrobials or antimicrobial-related compounds quickly in good yield in human plasma.
A HPP of antimicrobial or antimicrobial-related compound (10 mg) was dissolved in 0.1 ml of 0.2M pH 7.4 phosphate buffer. 1 ml of human plasma, preheated to 37° C., was added into the mixture. The mixture was kept in a water bath at 37° C., and at every 2 min intervals 0.2 ml of samples were withdrawn and added to 0.4 ml of methanol to precipitate the plasma protein.

Compound	Half life of HPPs in plasma
CCN(CC)CCOC(=O)C1N2C(=O)C(NC(=O)[C@H](NC(C)=O)c3ccccc3)C2SC1(C)C.Cl (stereo partly drawn) [6-[D(−)-α-acetamidophenylacetamidopenicillinic acid 2-diethylaminoethyl ester hydrochloride]	10 ± 1 min
C=CCSCC(=O)NC1C(=O)N2C1SC(C)(C)C2C(=O)OCCN(CC)CC.Cl (centres unmarked) [allylmercaptomethylpenicillinic acid 2-diethylaminoethyl ester hydrochloride]	8 ± 1 min
CCN(CC)CCOC(=O)C1N2C(=O)[C@@H](NC(=O)C(NC(=O)N3CCN(S(C)(=O)=O)C3=O)c3ccccc3)C2SC1(C)C.Cl (stereo partly drawn) [6R-[2-[3-(methylsulfonyl)-2-oxo-1-imidazolidinecarboxamido]-2-phenylacetamido]penicillinic acid 2-diethylaminoethyl ester hydrochloride]	13 ± 1 min

Assay: In vitro penetration across isolated human skin in modified Franz cells
Details: Table 1b; isolated human skin, Franz cells, 10% in 0.2 M phosphate buffer pH 7.4, n=5
Experimental: Penetration rates of HPPs and their parent drugs through human skin were measured in vitro by modified Franz cells. A Franz cell had two chambers, the top sample chamber and the bottom receiving chamber. The human skin tissue (360-400 μm thick) that separated the top and the receiving chambers was isolated from the anterior or posterior thigh areas.
A test compound (2 mL, 10% in 0.2 M phosphate buffer, pH 7.4) was added to the sample chamber of a Franz cell. The receiving chamber contained 10 ml of 0.2 M phosphate buffer which was stirred at 600 rpm. The amount of the tested compound penetrating the skin was determined by high-performance liquid chromatography (HPLC) method.

Compound	In vitro Penetration Rate (apparent flux), HPPs of beta-lactamases inhibitors	In vitro Penetration Rate (apparent flux), Parent compounds (beta-lactamases inhibitors)
Cl.O=C(NCP(=O)(OCCN1CCCCC1)Oc1cccnc1)OCc1ccccc1 (centres unmarked) [[(N-benzyloxycarbonylamino)methyl]-phosphonic acid (3-pyridinyl)(1-piperidineethyl) ester•HCl salt]	0.25 ± 0.04 mg/cm^2/h	
CCN(CC)COP(=O)(CNC(=O)OCc1ccccc1)Oc1ccc([N+](=O)[O-])cc1.Cl (centres unmarked) [[(N-benzyloxycarbonylamino)methyl]-phosphonic acid (4-nitrophenyl)(N,N-diethylaminomethyl) ester•HCl salt]	0.37 ± 0.03 mg/cm^2/h	
O=C(NCP(=O)([O-])Oc1ccc([N+](=O)[O-])cc1)OCc1ccccc1.[Na+] [[(N-benzyloxycarbonylamino)methyl]-phosphonic acid mono-(4-nitrophenyl) ester sodium salt, reference compound]		<0.001 mg/cm^2/h
O=C(NCP(=O)([O-])Oc1cccnc1)OCc1ccccc1.[Na+] [[(N-benzyloxycarbonylamino)methyl]-phosphonic acid mono-(3-pyridinyl) ester sodium salt, reference compound]		<0.001 mg/cm^2/h

Same assay, conditions: human, 10 %, pH 7.4

Compound	In vitro Penetration Rate (apparent flux), Parent compounds	In vitro Penetration Rate (apparent flux), Parent compounds (beta-lactamases inhibitors)
CO[C@@]1(NC(=O)Cc2cccs2)C(=O)N2C(C(=O)O)=C(COC(N)=O)CS[C@@H]21 [cefoxitin, reference compound]	<0.001 mg/cm^2/h	
CCN1CCN(C(=O)N[C@@H](C(=O)N[C@@H]2C(=O)N3C(C(=O)O)=C(CSc4nnnn4C)CS[C@H]23)c2ccc(O)cc2)C(=O)C1=O [Cefoperazone, reference compound]	<0.015 mg/cm^2/h	
C[C@]1(Cn2ccnn2)[C@H](C(=O)O)N2C(=O)C[C@H]2S1(=O)=O [tazobactam, [2S-(2alpha,3beta,5alpha)]-3-Methyl-7-oxo-3-(1H-1,2,3-triazol-1-ylmethyl)-4-thia-1-azabicyclo[3.2.0]heptane-2-carboxylic acid 4,4-dioxide sodium salt, reference compound]		<0.001 mg/cm^2/h
NCc1ccccc1CC(=O)N[C@@H]1C(=O)N2C(C(=O)O)=C(CSc3nnnn3CC(=O)O)CS[C@H]12 [Ceforanide, reference compound]	<0.001 mg/cm^2/h	
CC(=O)OCC1=C(C(=O)O)N2C(=O)[C@@H](NC(=O)Cc3cccs3)[C@H]2SC1 [Cephalothin, reference compound]	<0.001 mg/cm^2/h	
COCC1=C(C(=O)OC(C)OC(=O)OC(C)C)N2C(=O)[C@@H](NC(=O)/C(=N\OC)c3csc(N)n3)[C@H]2SC1 (some centres unmarked) [Cefpodoxime proxetil, reference compound]	<0.001 mg/cm^2/h	
N[C@@H](C(=O)N[C@@H]1C(=O)N2C(C(=O)O)=C(Cl)CS[C@H]12)c1ccccc1 [Cefaclor, reference compound]	<0.016 mg/cm^2/h	
C=CC1=C(C(=O)O)N2C(=O)[C@@H](NC(=O)/C(=N\OCC(=O)O)c3csc(N)n3)[C@H]2SC1 [Cefixime, reference compound]	<0.010 mg/cm^2/h	
O=C(O)[C@H]1/C(=C/CO)O[C@@H]2CC(=O)N21 [clavulanic acid, (2R,5R,Z)-3-(2-hydroxyethylidene)-7-oxo-4-oxa-1-aza-bicyclo[3.2.0]heptane-2-carboxylic acid, reference compound]		<0.001 mg/cm^2/h
Cc1onc(-c2c(Cl)cccc2Cl)c1C(=O)N[C@@H]1C(=O)N2[C@@H]1SC(C)(C)[C@@H]2C(=O)O [Dicloxacillin, reference compound]	<0.001 mg/cm^2/h	
CC1(C)S[C@@H]2[C@H](NC(=O)[C@H](NC(=O)N3CCNC3=O)c3ccccc3)C(=O)N2[C@H]1C(=O)O [Azlocillin, reference compound]	<0.001 mg/cm^2/h	
CC1(C)S[C@@H]2[C@H](NC(=O)[C@H](NC(=O)N3CCN(S(C)(=O)=O)C3=O)c3ccccc3)C(=O)N2[C@H]1C(=O)O [Mezlocillin, reference compound]	<0.001 mg/cm^2/h	
CO/N=C(\C(=O)N[C@@H]1C(=O)N2C(C(=O)O)=C(COC(N)=O)CS[C@H]12)c1ccco1 [Cefuroxime, reference compound]	<0.001 mg/cm^2/h	

Same assay, conditions: pH 7.4

Compound	In vitro Penetration Rate (apparent flux), HPPs	In vitro Penetration Rate (apparent flux), HPPs of sulfonamides, sulfones, quinolones	In vitro Penetration Rate (apparent flux), Parent compounds	In vitro Penetration Rate (apparent flux), HPPs of beta-lactamases inhibitors
CC1(C)SC2C(NC(=O)C(NC(=O)N3CCN(S(C)(=O)=O)C3=O)c3ccccc3)C(=O)N2C1C(=O)OCCN1CCCC1.Cl (stereo not drawn) [6R-[2-[3-(methylsulfonyl)-2-oxo-1-imidazolidinecarboxamido]-2-phenylacetamido]penicillinic acid 1-pyrrolidineethyl ester hydrochloride]	0.79 ± 0.07 mg/cm^2/h			
Cc1onc(-c2c(Cl)cccc2Cl)c1C(=O)NC1C(=O)N2C1SC(C)(C)C2C(=O)OCCN1CCCCC1.Cl (centres unmarked) [6-[3-(2,6-dichlorophenyl)-5-methyl-4-isoxazolecarboxamido]penicillinic acid 1-piperidineethyl ester hydrochloride]	0.58 ± 0.05 mg/cm^2/h			
CCN(CC)CCCOC(=O)C1=CC(=NNc2ccc(S(=O)(=O)Nc3ccccn3)cc2)C=CC1=O.Cl [sulfasalazine-DEPE, 6-oxo-3-(2-[4-(N-pyridin-2-ylsulfamoyl)phenyl]hydrazono)cyclohexa-1,4-dienecarboxylic acid N,N-diethyaminopropyl ester•HCl salt]		0.21 ± 0.03 mg/cm^2/h		
Cc1onc(-c2ccccc2Cl)c1C(=O)NC1C(=O)N2C1SC(C)(C)C2C(=O)OCCC1CCCNC1.Cl (centres unmarked) [6-[3-(o-chlorophenyl)-5-methyl-4-isoxazolecarboxamido]penicillinic acid 3-piperidineethyl ester hydrochloride]	0.85 ± 0.05 mg/cm^2/h			
CC1(C)SC2C(NC(=O)[C@H](NC(=O)N3CCNC3=O)c3ccccc3)C(=O)N2C1C(=O)OCC1CCCN1.Cl (stereo partly drawn) [D-α-[(imidazolidin-2-on-1-yl)carbonylamino]benzylpenicillin 2-pyrrolidinemethyl ester hydrochloride]	0.72 ± 0.05 mg/cm^2/h			
C=CCSCC(=O)NC1C(=O)N2C1SC(C)(C)C2C(=O)OCCN(C)C.Cl (centres unmarked) [Allylmercaptomethylpenicillinic acid 2-dimethylaminoethyl ester hydrochloride]	0.65 ± 0.05 mg/cm^2/h			
CCOC(=O)C1N2C(=O)C(NC(=O)[C@H](N)c3ccccc3)C2SC1(C)C.Cl (stereo partly drawn) [6-[D(−)-α-aminophenylacetamidopenicillinic acid ethyl ester hydrochloride]	0.82 ± 0.06 mg/cm^2/h			
C=CCSCC(=O)N[C@@H]1C(=O)N2[C@@H]1SC(C)(C)[C@@H]2C(=O)O [penicillin O, reference compound]			<0.001 mg/cm^2/h	
Cl.O=C(OCCC1CCNCC1)[C@H]1/C(=C/CO)O[C@@H]2CC(=O)N21 [clavulanic acid-PEE, (2R,5R,Z)-3-(2-hydroxyethylidene)-7-oxo-4-oxa-1-aza-bicyclo[3.2.0]heptane-2-carboxylic acid 4-piperidineethyl ester•HCl salt]				0.29 ± 0.02 mg/cm^2/h
CN(C)CCCC(=O)Nc1ccc(S(N)(=O)=O)cc1.Cl [DMAB-sulfanilamide, 4-(4-dimethylaminobutyryl)amidobenzenesulfonamide•HCl salt]		0.18 ± 0.03 mg/cm^2/h		
C[C@]1(Cn2ccnn2)[C@H](C(=O)OCCN2CCCCC2)N2C(=O)C[C@H]2S1(=O)=O.Cl [tazobactam-PEE, [2S-(2alpha,3beta,5alpha)]-3-Methyl-7-oxo-3-(1H-1,2,3-triazol-1-ylmethyl)-4-thia-1-azabicyclo[3.2.0]heptane-2-carboxylic acid 4,4-dioxide 1-piperidineethyl ester•HCl salt]				0.32 ± 0.03 mg/cm^2/h
CCCN(CCC)CCOC(=O)C1N2C(=O)C(NC(=O)c3c(OC)cccc3OC)C2SC1(C)C.Cl (centres unmarked) [6-(2,6-dimethoxybenzamido)penicillinic acid 2-dipropylaminoethyl ester hydrochloride]	0.52 ± 0.07 mg/cm^2/h			
